From ChEMBL document CHEMBL1127323, “Isosteric phosphonate analogs of ET-16-OMe. Synthesis and biological evaluation of the enantiomers of 2'-(trimethylammonio)ethyl 4-(hexadecyloxy)-3-methoxybutanephosphonate and 2'-(trimethylammonio)ethyl 4-(hexadecylthio)-3-methoxybutanephosphonate” (J Med Chem, 1994)

Legend:
Mus musculus = species: Mus musculus; assay: Inhibitory activity against murine leukemia; format: functional, organism-based
P388 = assay: Inhibitory activity against adriamycin-sensitive and resistant cells in P388 and P388-ADR cells; format: functional, cell-based; conditions: Mus musculus
L1210 = assay: Inhibitory activity against L1210 growth using clonogenic assay; format: functional, cell-based; conditions: Mus musculus

IC50 (Mus musculus) [µM]	IC50 (P388) [µM]	IC50 (L1210) [µM]	Compound
1	–	–	CCCCCCCCCCCCCCCCSC[C@H](CCP(=O)([O-])OCC[N+](C)(C)C)OC
1	2.5	2.5	CCCCCCCCCCCCCCCCOC[C@H](CCP(=O)([O-])OCC[N+](C)(C)C)OC
